Laboratory results from the supplement of paper PMC11208160.

Test: recombinant barcode read abundance after kanamycin selection (control-corrected) (log10(CPM+1)); higher = more efficient recombination; sequences stand for … in AGTGCAGAGAAAATCGGCCAGTTTTCTCTGCCTGCAGTCCGCATGCCGT…AGATTTATGCAGCGGACTGCCTTTCTCCCAAAGTGATAAACCGGACAGTATCATGGACCGGTTTTCCCGGTAATCCGTATTTGCAAGGTTGGTTTCACT; site = the 11-nt target
In short: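 Targets were screened in pooled form in E. coli against IS621 bridge RNA target-binding loops. Recombination efficiency is based on barcode counts at recombinant junctions in counts per million, averaged and corrected for the control. Numbers are shown as log10(CPM+1), with duplicate plates on chloramphenicol/ampicillin LB agar (control) or chloramphenicol/ampicillin/kanamycin with 0.1 mM IPTG.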
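Note: IS621 recombinase and bridge RNA in Escherichia coli cells.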

Row | Sequence | recombinant barcode read abundance (log10)
1 | CAGACGACTTGGGTTCTAACCTGTTGCCA (site TGCTGTCCTAA) | 0.0664
2 | CAGAGATCTTGGGTTCTAACCTGTTGCTT (site CAAAGATCTAA) | 0.328
3 | CAGAGATCTTGGGTTCTAACCTGTTGCTT (site CACAGATCTAA) | 0.137
4 | CAGAGATCTTGGGTTCTAACCTGTTGCTT (site CAGAGATCTAA) | 1.33
5 | CAGAGATCTTGGGTTCTAACCTGTTGCTT (site CATAGATCTAA) | 0.104
6 | CAGAGCTCTTGGGTTCTAACCTGTTGCCG (site AGACAGACTAC) | 0.078
7 | CAGAGCTCTTGGGTTCTAACCTGTTGCCG (site CAGAGCTCTCG) | 2.05
8 | CAGAGTCCTTGGGTTCTAACCTGTTGCAT (site CAGAGTCCTAG) | 0.852
9 | CAGAGTCCTTGGGTTCTAACCTGTTGCAT (site CAGAGTCCTAT) | 1.88
10 | CAGATTCCTTGGGTTCTAACCTGTTGCCT (site CAGATTCCTAG) | 0.542
11 | CAGATTCCTTGGGTTCTAACCTGTTGCCT (site GAGATTCCTAG) | 0.222
12 | CAGCCACCTTGGGTTCTAACCTGTTGCCT (site AAGCCACCTAG) | 0.0775
13 | CAGCCACCTTGGGTTCTAACCTGTTGCCT (site CAGCCACCTAG) | 1.4
14 | CAGCCACCTTGGGTTCTAACCTGTTGCCT (site GAGCCACCTAG) | 0.0262
15 | CAGCCACCTTGGGTTCTAACCTGTTGCCT (site TAGCCACCTAG) | 0
16 | CAGCGGTCTTGGGTTCTAACCTGTTGCGA (site CAGCGGTCTTC) | 1.65
17 | CAGCGGTCTTGGGTTCTAACCTGTTGCGA (site TTATACACTCT) | 0.0232
18 | CAGCTAACTTGGGTTCTAACCTGTTGCCT (site CAAATAACTAG) | 0.0162
19 | CAGCTAACTTGGGTTCTAACCTGTTGCCT (site CAGCTAACTAG) | 1.54
20 | CAGGCGCCTTGGGTTCTAACCTGTTGCCT (site CAGGCGACTAG) | 0.335
21 | CAGGCGCCTTGGGTTCTAACCTGTTGCCT (site CAGGCGCCTAG) | 0.979
22 | CAGGCGCCTTGGGTTCTAACCTGTTGCCT (site CAGGCGGCTAG) | 0.178

Row | Sequence | recombinant barcode read abundance (log10)
23 | CAGGCGCCTTGGGTTCTAACCTGTTGCCT (site CAGGCGTCTAG) | 0.527
24 | CAGGCGTCTTGGGTTCTAACCTGTTGCCT (site CAGGCGACTAG) | 0.109
25 | CAGGCGTCTTGGGTTCTAACCTGTTGCCT (site CAGGCGCCTAG) | 0.289
26 | CAGGCGTCTTGGGTTCTAACCTGTTGCCT (site CAGGCGGCTAG) | 0.111
27 | CAGGCGTCTTGGGTTCTAACCTGTTGCCT (site CAGGCGTCTAG) | 0.59
28 | CAGGGGACTTGGGTTCTAACCTGTTGCCG (site CAAGGGACTCC) | 0.177
29 | CAGGGGACTTGGGTTCTAACCTGTTGCCG (site CAGGGGACTCG) | 0.734
30 | CAGGGGTCTTGGGTTCTAACCTGTTGCAT (site AGCCTCCCTTG) | 0.0284
31 | CAGGGGTCTTGGGTTCTAACCTGTTGCAT (site CAGGGGTCTAT) | 2.04
32 | CAGTAATCTTGGGTTCTAACCTGTTGCCT (site CAGTAATCTAG) | 0.683
33 | CAGTAATCTTGGGTTCTAACCTGTTGCCT (site CAGTACTCTAG) | 0.138
34 | CAGTAATCTTGGGTTCTAACCTGTTGCCT (site CAGTAGTCTAG) | 0.169
35 | CAGTAATCTTGGGTTCTAACCTGTTGCCT (site CAGTATTCTAG) | 0
36 | CAGTCTACTTGGGTTCTAACCTGTTGCCT (site CAGTCTACTAG) | 0.115
37 | CAGTCTACTTGGGTTCTAACCTGTTGCCT (site CCGTCTACTAG) | 0.26
38 | CAGTCTACTTGGGTTCTAACCTGTTGCCT (site CGGTCTACTAG) | 0.132
39 | CAGTCTACTTGGGTTCTAACCTGTTGCCT (site CTGTCTACTAG) | 0.0878
40 | CATAACTCTTGGGTTCTAACCTGTTGCCT (site AATAACTCTAG) | 0.0585
41 | CATAACTCTTGGGTTCTAACCTGTTGCCT (site CATAACTCTAG) | 1.3
42 | CATAACTCTTGGGTTCTAACCTGTTGCCT (site GATAACTCTAG) | 0.331
43 | CATAACTCTTGGGTTCTAACCTGTTGCCT (site TATAACTCTAG) | 0.0747
44 | CATAAGCCTTGGGTTCTAACCTGTTGCCT (site CATAAGCCTAG) | 0.633

Row | Sequence | recombinant barcode read abundance (log10)
45 | CATAAGCCTTGGGTTCTAACCTGTTGCCT (site CATCAGCCTAG) | 0.07
46 | CATAAGCCTTGGGTTCTAACCTGTTGCCT (site CATGAGCCTAG) | 0.0152
47 | CATAAGCCTTGGGTTCTAACCTGTTGCCT (site CATTAGCCTAG) | 0.0852
48 | CATAGATCTTGGGTTCTAACCTGTTGCAT (site ATCTAGGCTCG) | 0.0128
49 | CATAGATCTTGGGTTCTAACCTGTTGCAT (site CATAGATCTAT) | 1.22
50 | CATAGTCCTTGGGTTCTAACCTGTTGCCT (site CAGAGTCCTAA) | 0.0573
51 | CATAGTCCTTGGGTTCTAACCTGTTGCCT (site CATAGTCCTAG) | 0.605
52 | CATATAGCTTGGGTTCTAACCTGTTGCAT (site CATATAGCTAT) | 0.693
53 | CATATAGCTTGGGTTCTAACCTGTTGCAT (site GATCTAGCTAT) | 0.667
54 | CATCAAGCTTGGGTTCTAACCTGTTGCCT (site CATCAAGCTAG) | 0.929
55 | CATCAAGCTTGGGTTCTAACCTGTTGCCT (site GTATGGACTTT) | 0.0466
56 | CATCCGACTTGGGTTCTAACCTGTTGCTC (site AGATTTCCTAT) | 0.122
57 | CATCCGACTTGGGTTCTAACCTGTTGCTC (site CATCCGACTGA) | 0.193
58 | CATCCGCCTTGGGTTCTAACCTGTTGCCT (site CATCCGACTAG) | 0.0105
59 | CATCCGCCTTGGGTTCTAACCTGTTGCCT (site CATCCGCCTAG) | 1.11
60 | CATCCGCCTTGGGTTCTAACCTGTTGCCT (site CATCCGGCTAG) | 0.0751
61 | CATCCGCCTTGGGTTCTAACCTGTTGCCT (site CATCCGTCTAG) | 0.0465
62 | CATCGAGCTTGGGTTCTAACCTGTTGCCG (site CAACGAGCTCG) | 0.228
63 | CATCGAGCTTGGGTTCTAACCTGTTGCCG (site CACCGAGCTCG) | 0.43
64 | CATCGAGCTTGGGTTCTAACCTGTTGCCG (site CAGCGAGCTCG) | 0.236
65 | CATCGAGCTTGGGTTCTAACCTGTTGCCG (site CATCGAGCTCG) | 0.283
66 | CATCGCTCTTGGGTTCTAACCTGTTGCTT (site CACCGTTCTAA) | 0.0858
